Several values for one entry are separate records, joined by “and”; a condition that tells them apart may be missing. Identical values can stand only once.
Tests used:
[1] = test system: patients with HER2/neu+ breast cancer; details: clinical vaccines in HER2/neu+ breast cancer; cited from earlier work
[2] = test system: CD8 T lymphocytes; assay: HLA-A2:Ig dimer staining with control peptide-loaded dimers; assay type: cell-based, human; details: almost 2000 peripheral blood samples from about 200-300 patients

| background binding value of negative control dimers [2] | Substance | safety and stimulation of antigen-specific immunity [1] |
| --- | --- | --- |
|  | IISAVVGIL [GP2] | safe and effective in stimulating antigen-specific immunity |
| 03% and 0.25-0.34% | NH2-RIAWARTEL-COOH (H-RIAWARTEL-OH) [E37] |  |
